Source: ChEMBL document CHEMBL2040775, “Evaluation of novel antioxidant triterpenoid saponins from the halophyte Salicornia herbacea” (Bioorg Med Chem Lett, 2012)
pIC50: −log10 of the molar value. Active and inactive are the calls of the source. The rule behind the calls is not given here.

What was measured:
Type in all cases: functional
[1] = Antioxidant activity assessed as morpholinosydnonimine-derived peroxynitrite free radical scavenging activity at 50 ug/ml after 5 mins by spectrophotometry
[2] = Antioxidant activity assessed as authentic peroxynitrite radical scavenging activity at 50 ug/ml after 5 mins by spectrophotometry
[3] = system: Radical scavenging activity; assay: Antioxidant activity assessed as DPPH radical scavenging activity after 30 mins by spectrophotometry
[4] = Antioxidant activity assessed as authentic peroxynitrite radical scavenging activity after 5 mins by spectrophotometry
[5] = Antioxidant activity assessed as morpholinosydnonimine-derived peroxynitrite free radical scavenging activity after 5 mins by spectrophotometry
[6] = system: Radical scavenging activity; assay: Antioxidant activity assessed as DPPH radical scavenging activity at 100 ug/ml after 30 mins by spectrophotometry
[7] = system: Radical scavenging activity; assay: Antioxidant activity assessed as DPPH radical scavenging activity a 50 ug/ml after 30 mins by spectrophotometry
[8] = system: Radical scavenging activity; assay: Antioxidant activity assessed as DPPH radical scavenging activity at 10 ug/ml after 30 mins by spectrophotometry

For `C=C1CC[C@]2(C(=O)O[C@@H]3O[C@H](CO)[C@@H](O)[C@H](O)[C@H]3O)CC[C@]3(C)C(=CC[C@@H]4[C@@]5(C)CC[C@H](O[C@@H]6O[C@H](C(=O)O)[C@@H](O)[C@H](O)[C@H]6O)[C@@](C)(CO)[C@@H]5CC[C@]43C)[C@@H]2C1`, the Activity [1] was “Active”, the Activity [2] was “Active” and the pIC50 [3] was 3.41. For the same molecule, the pIC50 [4] was over 6.00 and the pIC50 [5] was over 6.00.

With `CC(C)(S)[C@@H](N)C(=O)O` [PENICILLAMINE] the pIC50 [4] was over 6.00 and the pIC50 [5] was over 6.00.

For `CC1(C)CC[C@]2(C(=O)O)CC[C@]3(C)C(=CC[C@@H]4[C@@]5(C)CC[C@H](O[C@@H]6O[C@H](C(=O)O)[C@@H](O)[C@H](O)[C@H]6O)[C@@](C)(C=O)[C@@H]5CC[C@]43C)[C@@H]2C1`, the Activity [1] was “Active”, the Activity [2] was “Active” and the pIC50 [3] was under 3.30. The pIC50 [4] was 4.66 and the pIC50 [5] was 4.69.

For `Cc1cc(C(C)(C)C)c(O)c(C(C)(C)C)c1` [BUTYLATED HYDROXYTOLUENE], the Activity [6] was 68%, the Activity [7] was 54.9% and the Activity [8] was 39.7%. It also gave a pIC50 [3] of over 3.70.

In the case of `C=C1CC[C@]2(C(=O)O[C@@H]3O[C@H](CO)[C@@H](O)[C@H](O)[C@H]3O)CC[C@]3(C)C(=CC[C@@H]4[C@@]5(C)CC[C@H](O[C@@H]6O[C@H](C(=O)O)[C@@H](O)[C@H](O)[C@H]6O)[C@@](C)(C=O)[C@@H]5CC[C@]43C)[C@@H]2C1`, the Activity [1] was “Active”, the Activity [2] was “Active” and the pIC50 [3] was under 3.30. For the same molecule, the pIC50 [4] was 5.31 and the pIC50 [5] was 5.18.

Work on `O=C1O[C@H]([C@@H](O)CO)C(O)=C1O` [ASCORBIC ACID] yielded an Activity [6] of 95%, an Activity [7] of 95.1% and an Activity [8] of 94.9%. For the same molecule, the pIC50 [3] was over 4.70, the pIC50 [4] was 5.82 and the pIC50 [5] was over 6.00.

In the case of `CC1(C)CC[C@]2(C(=O)O[C@@H]3O[C@H](CO)[C@@H](O)[C@H](O)[C@H]3O)CC[C@]3(C)C(=CC[C@@H]4[C@@]5(C)CC[C@H](O[C@@H]6O[C@H](C(=O)O)[C@@H](O)[C@H](O)[C@H]6O)[C@@](C)(C=O)[C@@H]5CC[C@]43C)[C@@H]2C1`, the Activity [1] was “Active”, the Activity [2] was “Active” and the pIC50 [3] was under 3.30. It also gave a pIC50 [4] of 5.15 and a pIC50 [5] of 5.85.
